This passage reports Ki results from BindingDB's records for PubMed 6123593 (Eli Lilly, 1982).

Molecules are shown by their SMILES.

The target of test [1] is T1, Alpha-2C adrenergic receptor (Rattus norvegicus, UniProt P22086).
T1 sequence (P22086 whole entry): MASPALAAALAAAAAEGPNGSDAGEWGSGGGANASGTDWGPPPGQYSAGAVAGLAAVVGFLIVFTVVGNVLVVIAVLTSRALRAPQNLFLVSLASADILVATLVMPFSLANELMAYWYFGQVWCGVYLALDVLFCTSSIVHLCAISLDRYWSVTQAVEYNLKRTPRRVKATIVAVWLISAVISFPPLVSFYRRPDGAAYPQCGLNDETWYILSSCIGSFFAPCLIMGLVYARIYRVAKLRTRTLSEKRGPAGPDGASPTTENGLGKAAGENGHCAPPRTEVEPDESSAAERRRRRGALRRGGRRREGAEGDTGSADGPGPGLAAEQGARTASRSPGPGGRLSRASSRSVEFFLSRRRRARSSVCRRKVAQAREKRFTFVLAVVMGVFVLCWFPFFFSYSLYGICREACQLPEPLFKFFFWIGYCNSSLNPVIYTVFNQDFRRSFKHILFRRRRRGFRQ

For the next test, the target named is Histamine H1 receptor (Rattus norvegicus, UniProt P31390).
Histamine H1 receptor, sequence (P31390 whole entry): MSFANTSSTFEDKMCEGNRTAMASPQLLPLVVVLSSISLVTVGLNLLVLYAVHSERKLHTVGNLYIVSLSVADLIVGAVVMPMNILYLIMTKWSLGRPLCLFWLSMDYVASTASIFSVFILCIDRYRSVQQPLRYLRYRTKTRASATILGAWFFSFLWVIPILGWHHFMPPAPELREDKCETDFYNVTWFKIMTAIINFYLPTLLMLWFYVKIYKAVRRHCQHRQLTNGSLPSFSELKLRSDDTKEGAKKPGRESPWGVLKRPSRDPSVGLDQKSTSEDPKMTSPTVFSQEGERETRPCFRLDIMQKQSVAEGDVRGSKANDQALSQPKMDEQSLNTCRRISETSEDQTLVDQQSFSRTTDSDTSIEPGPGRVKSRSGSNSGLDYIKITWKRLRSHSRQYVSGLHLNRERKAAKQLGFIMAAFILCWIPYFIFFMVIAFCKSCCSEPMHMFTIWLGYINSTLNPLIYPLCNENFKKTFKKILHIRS
Test [2] deals with T2, Muscarinic acetylcholine receptor M2 (Rattus norvegicus, UniProt P10980).
T2 sequence (P10980 whole entry): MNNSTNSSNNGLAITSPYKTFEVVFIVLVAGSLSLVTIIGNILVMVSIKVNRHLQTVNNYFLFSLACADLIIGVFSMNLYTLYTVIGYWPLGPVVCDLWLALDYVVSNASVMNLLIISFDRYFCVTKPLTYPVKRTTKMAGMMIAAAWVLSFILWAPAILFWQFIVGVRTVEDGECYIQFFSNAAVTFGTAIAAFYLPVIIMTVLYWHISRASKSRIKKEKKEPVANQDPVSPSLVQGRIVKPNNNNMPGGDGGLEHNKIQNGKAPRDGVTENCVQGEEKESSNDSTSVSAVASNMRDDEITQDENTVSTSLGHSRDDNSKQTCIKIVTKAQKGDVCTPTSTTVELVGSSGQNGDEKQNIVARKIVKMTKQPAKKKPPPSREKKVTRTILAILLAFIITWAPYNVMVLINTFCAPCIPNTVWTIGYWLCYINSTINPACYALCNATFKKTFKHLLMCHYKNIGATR

In general, Ki refers to the dissociation constant of the complex between target and ligand, obtained from inhibition or displacement. Read a low Ki as a stronger hold on the target. For `CN(C)CCCN1c2ccccc2CCc2ccccc21`, the inhibition constant (Ki) in test [1] is 4.6 µM; on Histamine H1 receptor it was 0.031 µM; in test [2] it was 0.32 µM.

`CN1Cc2c(N)cccc2[C@H](c2ccccc2)C1` [(+/-)-2-Methyl-4-phenyl-1,2,3,4-tetrahydro-isoquinolin-8-ylamine]: the results for the Ki (in test [1]; on Histamine H1 receptor) were 6.1 µM and above 10 µM, respectively.

On to `CN(C)C[C@@H]1C2CCC(CC2)[C@@H]1c1ccc(Cl)c(Cl)c1` [CAS_62373-97-1], for which the Ki in test [1] was above 10 µM; at Histamine H1 receptor, 2 µM.

With `CNCCCN1c2ccccc2CCc2ccccc21` [Desmethylimipramine], the Ki came out at 9.2 µM in test [1] and 0.6 µM in test [2].

Regarding `CNCCC(Oc1ccccc1C)c1ccccc1` (configuration not stated) [Methyl-(3-phenyl-3-o-tolyloxy-propyl)-amine(tomoxetine)], the Ki in test [1] is above 10 µM; on Histamine H1 receptor it was 6.4 µM; in test [2], above 10 µM.
